Test [1] addresses T1, CDK2 (Homo sapiens, UniProt P24941).
T1 construct: High-Throughput Measurement of Cellular Endogenous CDK2; endogenous in cells; host or cells: OVCAR3
Description: High-throughput HTRF measurement of cellular endogenous CDK2 level (degradation, DC50/Dmax) in OVCAR3 cells, 6 h. In kind it is cell-based. The following applies: 6 h compound treatment, HTRF total CDK2, read-out: DC50_OVCAR3_6h. A digest of the protocol:
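OVCAR3 cells were treated overnight after seeding with compounds at 0.03–1,000 nM for 6 h, then lysed. Total CDK2 was quantified by HTRF (d2- and Eu-cryptate anti-CDK2 antibodies, […] ratio) after overnight incubation at room temperature. Data normalized to DMSO (0%) and lysis buffer (100% degradation); DC50 from four-parameter logistic fit.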

Test [2] concerns the target T1, CDK2. As to the kind of experiment: Inhibition of CDK2: phospho-Rb (S807/811) HTRF measurement in OVCAR3 cells, 24 h. In kind it is cell-based. As to conditions: 24 h compound treatment, read-out: pRB_OVCAR3_24h. The procedure, abridged: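 OVCAR3 cells, seeded overnight, were exposed to compounds at 0.3 to 10,000 nM for 24 h, then lysed. Rb S807/811 phosphorylation read by HTRF (665/620 nm ratio) after 4 h detection at room temperature; data normalized to DMSO and IC50 from four-parameter logistic fit.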

In the case of `CC(Cc1cccc(S(=O)(=O)N2CCC(Nc3ncc(OC(F)F)cn3)CC2)c1)CN1CCC(c2ccc3c(N4CCC(=O)NC4=O)nn(C)c3c2)CC1` (centres unmarked) [Example 66, 1-(6-(1-(3-(3-((4-((5-(difluoromethoxy)-pyrimidin-2-yl)amino)piperidin-1-yl)sulfonyl)phenyl)-2-methylpropyl)-piperidin-4-yl)-1-methyl-1H-indazol-3-yl)dihydropyrimidine-2,4(1H,3H)-dione], the DC50 at CDK2 [1] fell in the range of 1 to 10 nM. Also, the IC50 on CDK2 [2] lay within 1 to 100 nM.
For `Cn1nc(N2CCC(=O)NC2=O)c2cc(F)c(C3CCN(CC4CCN(c5cccc(S(=O)(=O)N6CCC(Nc7ncc(Cl)cn7)CC6)c5)CC4)CC3)cc21` [Example 99, 1-(6-(1-((1-(3-((4-((5-chloropyrimidin-2-yl)amino)piperidin-1-yl)sulfonyl)phenyl)-piperidin-4-yl)methyl)piperidin-4-yl)-5-fluoro-1-methyl-1H-indazol-3-yl)dihydropyrimidine-2,4(1H,3H)-dione] the same measures were 10 to 100 nM and 1 to 100 nM.
In the same order, the values of `Cn1nc(N2CCC(=O)NC2=O)c2ccc(C3CCN(Cc4cccc(S(=O)(=O)N5CCC(Nc6ncc(Br)cn6)CC5)c4)CC3)cc21` [Example 24, 1-(6-(1-(3-((4-((5-bromopyrimidin-2-yl)amino)piperidin-1-yl)sulfonyl)benzyl)-piperidin-4-yl)-1-methyl-1H-indazol-3-yl)dihydropyrimidine-2,4(1H,3H)-dione] are 1 to 10 nM and 100 to 500 nM.
For `Cn1nc(N2CCC(=O)NC2=O)c2ccc(C3CCN(CC4CCN(c5cccc(S(=O)(=O)N6CCC(Nc7ncc(Br)cn7)CC6)c5)CC4)CC3)cc21` [Example 199, 1-(6-(1-((1-(3-((4-((5-bromopyrimidin-2-yl)amino)piperidin-1-yl)sulfonyl)phenyl)piperidin-4-yl)methyl)piperidin-4-yl)-1-methyl-1H-indazol-3-yl)dihydropyrimidine-2,4(1H,3H)-dione], the DC50 at CDK2 [1] lay in the range of 1 to 10 nM. Moreover, the IC50 at CDK2 [2] lay in the range of 1 to 100 nM.
Consider `Cn1nc(N2CCC(=O)NC2=O)c2cc(F)c(C3CCN(Cc4cccc(S(=O)(=O)N5CCC(Nc6ncc(Cl)cn6)CC5)c4)CC3)cc21` [Example 23, 1-(6-(1-(3-((4-((5-chloropyrimidin-2-yl)amino)piperidin-1-yl)sulfonyl)benzyl)-piperidin-4-yl)-5-fluoro-1-methyl-1H-indazol-3-yl)dihydropyrimidine-2,4(1H,3H)-dione], for which the DC50 on CDK2 [1] lay within 10 to 100 nM. For the same molecule, the IC50 at CDK2 [2] fell in the range of 100 to 500 nM.
For `CC(Cc1cccc(S(=O)(=O)N2CCC(Nc3ncc(C(F)(F)F)cn3)CC2)c1)CN1CCC(c2ccc3c(N4CCC(=O)NC4=O)nn(C)c3c2)CC1` (centres unmarked) [Example 29] the same measures were 1 to 10 nM and 1 to 100 nM.
For `N#Cc1ccc(S(=O)(=O)N2CCC(Nc3ncc(C(F)(F)F)cn3)CC2)cc1N1CCC(CN2CCC(c3cccc4c3oc(=O)n4C3CCC(=O)NC3=O)CC2)CC1` (centres unmarked) [Example 198, 2-(4-((4-(3-(2,6-dioxopiperidin-3-yl)-2-oxo-2,3-dihydrobenzo[d]oxazol-7-yl)piperidin-1-yl)methyl)piperidin-1-yl)-4-((4-((5-(trifluoromethyl)pyrimidin-2-yl)amino)piperidin-1-yl)sulfonyl)benzonitrile] the same measures were 1 to 10 nM and 1 to 100 nM.
In the same order, the values of `Cn1c(=O)n(C2CCC(=O)NC2=O)c2ccc(C3CCN(CC4CCN(c5cccc(S(=O)(=O)N6CCC(Nc7ncc(C(F)(F)F)cn7)CC6)c5)CC4)CC3)cc21` (centres unmarked) [Example 177, 3-(3-methyl-2-oxo-5-(1-((1-(3-((4-((5-(trifluoromethyl)pyrimidin-2-yl)amino)piperidin-1-yl)sulfonyl)phenyl)piperidin-4-yl)methyl)piperidin-4-yl)-2,3-dihydro-1H-benzo[d]imidazol-1-yl)piperidine-2,6-dione] are 1 to 10 nM and 1 to 100 nM.
`Cn1c(=O)n(C2CCC(=O)NC2=O)c2cccc(C3CCN(Cc4cc(F)cc(S(=O)(=O)N5CCC(Nc6ncc(OC(F)F)cn6)CC5)c4)CC3)c21` (centres unmarked) [Example 184, 3-(4-(1-(3-((4-((5-(difluoromethoxy)pyrimidin-2-yl)amino)piperidin-1-yl)sulfonyl)-5-fluorobenzyl)piperidin-4-yl)-3-methyl-2-oxo-2,3-dihydro-1H-benzo[d]imidazol-1-yl)piperidine-2,6-dione]: on CDK2 [1], the DC50 lay in the range of 1 to 10 nM. Besides, the IC50 at CDK2 [2] was in the range of 1 to 100 nM.
For `Cn1c(=O)n(C2CCC(=O)NC2=O)c2cccc(C3CCN(CC4CCN(c5cccc(S(=O)(=O)N6CCC(Nc7ncc(C(F)(F)F)cn7)CC6)c5)CC4)CC3)c21` (centres unmarked) [Example 107, 3-(3-methyl-2-oxo-4-(1-((1-(3-((4-((5-(trifluoromethyl)pyrimidin-2-yl)amino)-piperidin-1-yl)sulfonyl)phenyl)piperidin-4-yl)methyl)piperidin-4-yl)-2,3-dihydro-1H-benzo[d]imidazol-1-yl)piperidine-2,6-dione] the same measures were 1 to 10 nM and 1 to 100 nM.
For `Cn1nc(N2CCC(=O)NC2=O)c2ccc(C3CCN(Cc4cccc(S(=O)(=O)N5CC[C@H](Nc6ncc(Cl)cn6)[C@H](F)C5)c4)CC3)cc21` [Example 27] the same measures were 10 to 100 nM and 100 to 500 nM.
For `O=C1CCN(c2nn(CC(F)(F)F)c3cc(C4CCN(CC5CCN(c6cccc(S(=O)(=O)N7CCC(Nc8ncc(C(F)(F)F)cn8)CC7)c6)CC5)CC4)ccc23)C(=O)N1` [Example 91, 1-(1-(2,2,2-trifluoroethyl)-6-(1-((1-(3-((4-((5-(trifluoromethyl)pyrimidin-2-yl)amino)piperidin-1-yl)sulfonyl)phenyl)-piperidin-4-yl)methyl)piperidin-4-yl)-1H-indazol-3-yl)dihydropyrimidine-2,4(1H,3H)-dione] the same measures were 10 to 100 nM and 100 to 500 nM.
Regarding `Cn1nc(N2CCC(=O)NC2=O)c2ccc(C3CCN(CC4CCN(c5cc(S(=O)(=O)N6CCC(Nc7ncc(OC(F)F)cn7)CC6)ccc5C#N)CC4)CC3)c(F)c21` [Example 192, 4-((4-((5-(difluoromethoxy)pyrimidin-2-yl)amino)piperidin-1-yl)sulfonyl)-2-(4-((4-(3-(2,4-dioxotetrahydropyrimidin-1(2H)-yl)-7-fluoro-1-methyl-1H-indazol-6-yl)piperidin-1-yl)methyl)piperidin-1-yl)benzonitrile], the DC50 on CDK2 [1] was in the range of 1 to 10 nM. Also, at CDK2 [2], the IC50 lay in the range of 1 to 100 nM.
In the same order, the values of `Cn1nc(N2CCC(=O)NC2=O)c2ccc(C3CCN(CC4(O)CCN(c5cccc(S(=O)(=O)N6CCC(Nc7ncc(Cl)cn7)CC6)c5)CC4)CC3)cc21` [Example 162, 1-(6-(1-((1-(3-((4-((5-chloropyrimidin-2-yl)amino)piperidin-1-yl)sulfonyl)phenyl)-4-hydroxypiperidin-4-yl)methyl)piperidin-4-yl)-1-methyl-1H-indazol-3-yl)dihydropyrimidine-2,4(1H,3H)-dione] are 1 to 10 nM and 1 to 100 nM.
For `Cn1nc(N2CCC(=O)NC2=O)c2ccc(C3CCN(CC(C)(C)Cc4cccc(S(=O)(=O)N5CCC(Nc6ncc(C(F)(F)F)cn6)CC5)c4)CC3)cc21` [Example 55, 1-(6-(1-(2,2-dimethyl-3-(3-((4-((5-(trifluoro-methyl)pyrimidin-2-yl)amino)piperidin-1-yl)sulfonyl)phenyl)propyl)piperidin-4-yl)-1-methyl-1H-indazol-3-yl)dihydropyrimidine-2,4(1H,3H)-dione] the same measures were 10 to 100 nM and 1 to 100 nM.
In the same order, the values of `Cn1c(=O)n(C2CCC(=O)NC2=O)c2cccc(C3CCN(CC4CCN(c5cc(F)cc(S(=O)(=O)N6CCC(Nc7ncc(Cl)cn7)CC6)c5)CC4)CC3)c21` (centres unmarked) [Example 180, 3-(4-(1-((1-(3-((4-((5-chloropyrimidin-2-yl)amino)piperidin-1-yl)sulfonyl)-5-fluorophenyl)piperidin-4-yl)methyl)piperidin-4-yl)-3-methyl-2-oxo-2,3-dihydro-1H-benzo[d]imidazol-1-yl)piperidine-2,6-dione] are 10 to 100 nM and 100 to 500 nM.
As for `O=C1CCC(n2c(=O)oc3c(C4CCN(CC5CCN(c6cccc(S(=O)(=O)N7CCC(Nc8ncc(C(F)(F)F)cn8)CC7)c6)CC5)CC4)cccc32)C(=O)N1` (centres unmarked) [Example 201, 3-(2-oxo-7-(1-((1-(3-((4-((5-(trifluoromethyl)pyrimidin-2-yl)amino)piperidin-1-yl)sulfonyl)phenyl)piperidin-4-yl)methyl)piperidin-4-yl)benzo[d]oxazol-3(2H)-yl)piperidine-2,6-dione], the DC50 on CDK2 [1] lay in the range of 1 to 10 nM. At CDK2 [2], the IC50 was 1 to 100 nM.
In the same order, the values of `Cn1nc(N2CCC(=O)NC2=O)c2ccc(C3CCN(CC4CCN(c5cccc(S(=O)(=O)N6CCC(Nc7ncc(C(F)(F)F)cn7)CC6)c5)CC4)CC3)cc21` [Example 40, 1-(1-methyl-6-(1-((1-(3-((4-((5-(trifluoro-methyl)pyrimidin-2-yl)amino)piperidin-1-yl)sulfonyl)phenyl)piperidin-4-yl)methyl)piperidin-4-yl)-1H-indazol-3-yl)dihydropyrimidine-2,4(1H,3H)-dione] are 1 to 10 nM and 1 to 100 nM.
For `Cn1cc(C2CCC(=O)NC2=O)c2ccc(C3CCN(CC4CCN(c5cccc(S(=O)(=O)N6CCC(Nc7ncc(C(F)(F)F)cn7)CC6)c5)CC4)CC3)cc21` (centres unmarked) [Example 251, 3-(1-methyl-6-(1-((1-(3-((4-((5-(trifluoromethyl)pyrimidin-2-yl)amino)piperidin-1-yl)sulfonyl)phenyl)piperidin-4-yl)methyl)piperidin-4-yl)-1H-indol-3-yl)piperidine-2,6-dione] the same measures were 10 to 100 nM and 1 to 100 nM.
